In PMC9403976, “Elucidating the path to Plasmodium prolyl-tRNA synthetase inhibitors that overcome halofuginone resistance” (Nature Communications, 2022):
Where “and” joins values, the source holds several entries; their conditions need not be identical. Identical values can stand only once. Like-named read-outs stand apart in the source and are kept apart here.

Assays:
P. falciparum Dd2-2D4 = assay: P. falciparum asexual blood stage (ABS) growth assay, SYBR Green, 72 h, wild-type parasites; assay type: cell-based, Plasmodium falciparum; details: Plasmodium falciparum, DD2; SI Fig 16b; values on -log scale; read-out: ABS - Dd2-2D4 (converted)
[1] = test system: halofuginone-induced P. falciparum (elevated proline homeostasis); assay: P. falciparum ABS growth assay, SYBR Green, 72 h, halofuginone-induced parasites; assay type: cell-based, Plasmodium falciparum; details: Halofuginone-Induced (HFG-Induced)
How it was run: (§1)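 Dd2-derived P. falciparum lines (HFGR-I, halofuginone-induced) at 1% parasitemia and 1% hematocrit in RPMI + 0.5% Albumax were exposed to compounds in triplicate dose-response for 72 h. Growth was read as SYBR Green 1 fluorescence, with 10 μM dihydroartemisinin as kill control and compound-free wells as growth control.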

[2] = test system: HFGR-I P. falciparum (elevated proline homeostasis and PfcProRS^L482H); assay: P. falciparum ABS growth assay, SYBR Green, 72 h, HFGR-I parasites; assay type: cell-based, Plasmodium falciparum; details: HFGR-I
How it was run: as §1

PfcProRS = target: T1, PfcProRS (Plasmodium falciparum, UniProt Q8I5R7); assay type: binding; details: for Normalized response, dose-response replicates (SI Fig 14): replicates 1-3
T1 construct: made in house; host or cells: E. coli SoluBL-21

HsProRS = HsProRS (Homo sapiens, UniProt P07814); assay: TR-FRET ligand displacement assay with tracer MAT379 (CoraFluor-1-Halo and anti-His6 antibody formats); assay type: binding; parameters: made in house; host or cells: E. coli SoluBL-21; details: for Kd: 250 nM MAT379; for normalized TR-FRET signal (dose-response replicates): SI Fig 17a
[3] = Log[inhibitor] (M) -5.000, series r16-r27

HsProRS, sequence (P07814 996-1512): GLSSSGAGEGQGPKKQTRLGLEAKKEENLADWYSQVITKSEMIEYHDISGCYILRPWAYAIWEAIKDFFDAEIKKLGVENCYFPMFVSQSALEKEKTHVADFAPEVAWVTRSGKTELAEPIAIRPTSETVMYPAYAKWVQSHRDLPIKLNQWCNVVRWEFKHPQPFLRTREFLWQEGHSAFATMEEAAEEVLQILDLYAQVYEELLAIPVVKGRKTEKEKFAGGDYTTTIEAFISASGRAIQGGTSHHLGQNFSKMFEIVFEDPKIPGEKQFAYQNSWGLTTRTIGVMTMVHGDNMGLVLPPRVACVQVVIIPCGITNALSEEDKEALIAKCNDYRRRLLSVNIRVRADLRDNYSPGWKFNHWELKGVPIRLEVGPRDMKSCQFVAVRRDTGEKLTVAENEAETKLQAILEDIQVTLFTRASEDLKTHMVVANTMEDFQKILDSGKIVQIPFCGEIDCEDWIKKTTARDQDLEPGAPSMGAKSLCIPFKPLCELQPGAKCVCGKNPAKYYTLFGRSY
T1 sequence (Q8I5R7 249-746): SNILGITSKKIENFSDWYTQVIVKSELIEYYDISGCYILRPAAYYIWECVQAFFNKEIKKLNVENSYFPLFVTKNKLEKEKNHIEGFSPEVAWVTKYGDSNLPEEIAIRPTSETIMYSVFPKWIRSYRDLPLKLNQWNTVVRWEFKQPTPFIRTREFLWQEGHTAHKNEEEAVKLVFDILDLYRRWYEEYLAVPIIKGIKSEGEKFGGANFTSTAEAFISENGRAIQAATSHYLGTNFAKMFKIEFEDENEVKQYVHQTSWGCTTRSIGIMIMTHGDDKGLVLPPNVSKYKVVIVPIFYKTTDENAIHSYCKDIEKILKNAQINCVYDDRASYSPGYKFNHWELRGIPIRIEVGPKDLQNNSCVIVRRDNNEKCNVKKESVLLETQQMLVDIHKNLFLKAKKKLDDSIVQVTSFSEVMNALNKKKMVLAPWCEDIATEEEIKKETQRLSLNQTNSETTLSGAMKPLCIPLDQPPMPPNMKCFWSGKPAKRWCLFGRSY

`CC(C)(C)OC(=O)N1CCC[C@H]1C(=O)NCC1CCN(C(=O)Nc2nccnc2C(=O)NC2Cc3ccccc3C2)CC1` [compound 32] was tested, and the EC50 (P. falciparum Dd2-2D4) was 63.2 nM, the “parasite growth, dose-response point” value [1, 3] was 56 and 59 and 61 and the “parasite growth, dose-response point” value ([1]; Log[inhibitor] (M) -5.408) was 91 and 93. For the same molecule, the “parasite growth, dose-response point” value ([1]; Log[inhibitor] (M) -5.816) was 97 and 101, the “parasite growth, dose-response point” value ([1]; Log[inhibitor] (M) -6.222) was 101 and 104 and the “parasite growth, dose-response point” value ([1]; Log[inhibitor] (M) -6.638) was 105 and 99 and 109. For the same molecule, the “parasite growth, dose-response point” value ([1]; Log[inhibitor] (M) -7.046) was 102 and 106, the “parasite growth, dose-response point” value ([1]; Log[inhibitor] (M) -7.450) was 96 and 98 and 97 and the “parasite growth, dose-response point” value ([1]; Log[inhibitor] (M) -7.854) was 92 and 97 and 99. The “parasite growth, dose-response point” value ([1]; Log[inhibitor] (M) -8.260) was 102 and 96 and 100, the “parasite growth, dose-response point” value ([1]; Log[inhibitor] (M) -8.699) was 96 and 106 and 94 and the “parasite growth, dose-response point” value ([1]; Log[inhibitor] (M) -9.000) was 100 and 96 and 98. For the same molecule, the “parasite growth, dose-response point” value ([1]; Log[inhibitor] (M) -9.488) was 96 and 100 and 101, the “parasite growth, dose-response point” value [2, 3] was 65 and 64 and 69 and the “parasite growth, dose-response point” value ([2]; Log[inhibitor] (M) -5.408) was 103 and 102 and 96. The “parasite growth, dose-response point” value ([2]; Log[inhibitor] (M) -5.816) was 108 (2×) and 102, the “parasite growth, dose-response point” value ([2]; Log[inhibitor] (M) -6.222) was 105 and the “parasite growth, dose-response point” value ([2]; Log[inhibitor] (M) -6.638) was 107 and 104 and 103. The “parasite growth, dose-response point” value ([2]; Log[inhibitor] (M) -7.046) was 101 and 105 and 99, the “parasite growth, dose-response point” value ([2]; Log[inhibitor] (M) -7.450) was 87 and 91 and 96 and the “parasite growth, dose-response point” value ([2]; Log[inhibitor] (M) -7.854) was 87 and 93 and 83. The “parasite growth, dose-response point” value ([2]; Log[inhibitor] (M) -8.260) was 88 and 90 and 94, the “parasite growth, dose-response point” value ([2]; Log[inhibitor] (M) -8.699) was 93 and 91 and the “parasite growth, dose-response point” value ([2]; Log[inhibitor] (M) -9.000) was 91 and 92 and 87. For the same molecule, the “parasite growth, dose-response point” value ([2]; Log[inhibitor] (M) -9.488) was 92 and 82, the “Normalized response, dose-response replicates (SI Fig 14)” value (from here on “Normalized response”) (PfcProRS; Log[inhibitor] (M) -5.000) was 8.11E-02 and -2.06E-02 and -4.64E-02 and the “Normalized response” value (PfcProRS; Log[inhibitor] (M) -5.301) was 3.54E-04 and -5.93E-02 and 6.94E-02. The “Normalized response” value (PfcProRS; Log[inhibitor] (M) -5.601) was 6.67E-02 and 8.89E-02 and 6.64E-02, the “Normalized response” value (PfcProRS; Log[inhibitor] (M) -5.904) was 2.31E-01 and 3.17E-01 and 2.64E-01 and the “Normalized response” value (PfcProRS; Log[inhibitor] (M) -6.208) was 3.63E-01 and 4.57E-01 and 4.26E-01. For the same molecule, the “Normalized response” value (PfcProRS; Log[inhibitor] (M) -6.509) was 7.41E-01 and 6.71E-01 and 7.68E-01, the “Normalized response” value (PfcProRS; Log[inhibitor] (M) -6.796) was 9.02E-01 and 7.89E-01 and 8.70E-01 and the “Normalized response” value (PfcProRS; Log[inhibitor] (M) -7.108) was 8.53E-01 and 8.96E-01 and 8.71E-01. The “Normalized response” value (PfcProRS; Log[inhibitor] (M) -7.409) was 8.49E-01 and 8.87E-01 and 9.83E-01, the “Normalized response” value (PfcProRS; Log[inhibitor] (M) -7.710) was 9.08E-01 and 9.29E-01 and 9.85E-01 and the “Normalized response” value (PfcProRS; Log[inhibitor] (M) -8.000) was 9.86E-01 and 8.66E-01 and 9.79E-01. The “Normalized response” value (PfcProRS; Log[inhibitor] (M) -8.301) was 1.11E+00 and 8.88E-01 and 9.05E-01, the “Normalized response” value (PfcProRS; Log[inhibitor] (M) -8.602) was 9.30E-01 and 8.25E-01 and 1.02E+00 and the “Normalized response” value (PfcProRS; Log[inhibitor] (M) -9.000) was 8.77E-01 and 8.28E-01 and 9.46E-01. For the same molecule, the “Normalized response” value (PfcProRS; Log[inhibitor] (M) -9.301) was 8.47E-01 and 9.35E-01 and 9.98E-01, the “PfcProRS -- best Kd” value (PfcProRS; SI Fig 16a, values on -log scale) was 8.272 and the Kd (HsProRS; HsProRS (KD [nM]) + proline, 100 μM proline) was 270 nM. For the same molecule, the Kd (HsProRS; HsProRS (KD [nM]) −, absence of substrates) was 72.1 nM, the “normalised signal, dose-response point (Fig 4d)” value (“normalised signal” below) (HsProRS; Log[inhibitor] (M) -5.000, series of 32) was 2.12E-01 and 2.00E-01 and 2.05E-01 and the “normalised signal” value (HsProRS; Log[inhibitor] (M) -5.260) was 3.41E-01 and 3.06E-01 and 3.25E-01. The “normalised signal” value (HsProRS; Log[inhibitor] (M) -5.520) was 5.51E-01 and 5.09E-01 and 5.11E-01, the “normalised signal” value (HsProRS; Log[inhibitor] (M) -5.770) was 5.87E-01 and 6.67E-01 and 6.60E-01 and the “normalised signal” value (HsProRS; Log[inhibitor] (M) -6.020) was 8.17E-01 and 7.53E-01 and 7.81E-01. The “normalised signal” value (HsProRS; Log[inhibitor] (M) -6.280) was 8.69E-01 and 9.20E-01 and 9.33E-01, the “normalised signal” value (HsProRS; Log[inhibitor] (M) -6.530) was 9.20E-01 and 9.88E-01 and 9.42E-01 and the “normalised signal” value (HsProRS; Log[inhibitor] (M) -6.800) was 9.40E-01 and 8.89E-01. For the same molecule, the “normalised signal” value (HsProRS; Log[inhibitor] (M) -7.060) was 9.33E-01 and 9.82E-01 and 1.04E+00, the “normalised signal” value (HsProRS; Log[inhibitor] (M) -7.320) was 9.28E-01 and 1.05E+00 and 1.04E+00 and the “normalised signal” value (HsProRS; Log[inhibitor] (M) -7.550) was 9.75E-01 and 9.78E-01 and 9.48E-01. For the same molecule, the “normalised signal” value (HsProRS; Log[inhibitor] (M) -7.800) was 9.53E-01 and 9.20E-01 and 9.82E-01, the “normalised signal” value (HsProRS; Log[inhibitor] (M) -8.100) was 1.05E+00 and 1.02E+00 and 1.07E+00 and the “normalised signal” value (HsProRS; Log[inhibitor] (M) -8.400) was 1.08E+00 and 1.05E+00 and 1.02E+00. The “normalised signal” value (HsProRS; Log[inhibitor] (M) -8.590) was 1.09E+00 and 1.06E+00 and 1.01E+00, the “normalized TR-FRET signal (dose-response replicates)” value (“normalized TR-FRET signal” for short) (HsProRS; Log[inhibitor] (M) -5.000) was 2.39E-01 and 2.20E-01 and 1.87E-01 and the “normalized TR-FRET signal” value (HsProRS; Log[inhibitor] (M) -5.301) was 3.62E-01 and 3.47E-01 and 3.37E-01. For the same molecule, the “normalized TR-FRET signal” value (HsProRS; Log[inhibitor] (M) -5.601) was 5.14E-01 and 4.86E-01 and 5.28E-01, the “normalized TR-FRET signal” value (HsProRS; Log[inhibitor] (M) -5.904) was 6.65E-01 and 6.61E-01 and 6.44E-01 and the “normalized TR-FRET signal” value (HsProRS; Log[inhibitor] (M) -6.208) was 7.43E-01 and 7.50E-01 and 7.76E-01. The “normalized TR-FRET signal” value (HsProRS; Log[inhibitor] (M) -6.509) was 8.47E-01 and 8.09E-01 and 8.87E-01, the “normalized TR-FRET signal” value (HsProRS; Log[inhibitor] (M) -6.796) was 8.64E-01 and 8.39E-01 and 8.67E-01 and the “normalized TR-FRET signal” value (HsProRS; Log[inhibitor] (M) -7.108) was 8.86E-01 and 8.93E-01 and 9.29E-01. The “normalized TR-FRET signal” value (HsProRS; Log[inhibitor] (M) -7.409) was 9.16E-01 and 8.51E-01 and 8.90E-01, the “normalized TR-FRET signal” value (HsProRS; Log[inhibitor] (M) -7.710) was 8.73E-01 and 8.93E-01 and 9.04E-01 and the “normalized TR-FRET signal” value (HsProRS; Log[inhibitor] (M) -8.000) was 8.95E-01 and 8.48E-01 and 9.51E-01. The “normalized TR-FRET signal” value (HsProRS; Log[inhibitor] (M) -8.301) was 9.44E-01 and 8.99E-01 and 9.43E-01, the “normalized TR-FRET signal” value (HsProRS; Log[inhibitor] (M) -8.602) was 9.47E-01 and 8.94E-01 and 9.08E-01 and the “normalized TR-FRET signal” value (HsProRS; Log[inhibitor] (M) -9.000) was 8.96E-01 and 9.17E-01 and 8.59E-01. The “normalized TR-FRET signal” value (HsProRS; Log[inhibitor] (M) -9.301) was 8.96E-01 and 9.24E-01 and 9.14E-01.
